Data taken from US11623931B2, “Bicyclic compounds for diagnosis and therapy” (AC IMMUNE SA, priority 2016, dated 2023).

Legend:
[1] = target: T1, aSyn aggregates on PD sections (Homo sapiens, UniProt P37840); assay: Assay 1 (fluorescence based assay): direct staining of human Parkinson's disease brain sections; format: binding; parameters: key: − (No); +/− (very weak); + (weak); ++ (good); +++ (strong); conditions: staining intensity; compound 100 μM, frozen amygdala sections, PD Braak stage V-VI
T1 construct: 20 μm frozen sections from amygdala were purchased from an external provider (Tissue Solutions Ltd.); tissue Tissue Solutions Ltd; host or cells: human PD amygdala, frozen sections, Braak stage V-VI
Source text: Assay 1 (Fluorescence Based Assay):
Direct Staining of Compounds of this Invention to Human Parkinson's Disease Brain Sections
20 μm frozen sections from amygdala were purchased from an external provider (Tissue Solutions Ltd.). Donors were diagnosed with PD, Braak stage V-VI (Braak et al., Neurobiol. Aging, 2003, 24, 197-211) and thus with confirmed aSyn pathology. PD donors, Braak stage V-VI with mixed pathology, containing aSyn aggregates as well as Aβ plaques, were also used in this assay. Sections were kept at −80° C. until start of the experiment.
Brain sections were encircled with pap pen liquid blocker to reduce the volume of solution for the different incubations. Sections were fixed for 15 min at 4° C. with 4% paraformaldehyde and washed three times for 5 minutes with PBS (phosphate buffered saline) at room temperature. Test compounds were incubated on the sections at 100 μM in 50% ethanol in water for 30 min at room temperature, followed by three washes of 5 minutes with PBS. Sections were then saturated and permeabilized in blocking buffer (PBS, 10% NGS, 0.25% Triton) for 1 hour at room temperature and then incubated for 2 hours at room temperature with the primary antibodies against aSyn: aSyn-211 (SantaCruz Biotechnology sc-12767) or aSyn-pS129 (Abcam AB51253), and primary antibody against AR, 4G8, (Covance, SIG-39220). All primary antibodies diluted 1/250 in PBS, 5% NGS, 0.25% Triton. After three washes in PBS, the sections were incubated for 30 minutes at room temperature with a secondary anti-mouse antibody labeled with AlexaFluor555 (Invitrogen A21422) or anti-rabbit antibody labeled with AlexaFluor555 (Invitrogen A21428) and further washed three times in PBS. To reduce auto-fluorescence of the tissue, the sections were incubated in a solution of 0.1% Sudan Black (Sigma 199664) in 70% ethanol for 15 min at room temperature, followed by four washes with PBS and mounted under cover slips using ProLong Gold Antifade reagent (Invitrogen P36930).
Sections were analyzed on the Nikon Eclipse Ti microscope to detect staining and imaged using Nikon DS-Fi2 camera and NIS-Element AR4.13.1 software.

[2] = tested on: Aβ plaques on AD sections; assay: Assay 1 (fluorescence based assay): direct staining of human Alzheimer's disease brain sections; format: binding; parameters: key: − (No); +/− (very weak); + (weak); ++ (good); +++ (strong); conditions: staining intensity; compound 100 μM, frozen amygdala sections, AD Braak stage V-VI
Description: Direct Staining of Compounds of this Invention to Human Alzheimer's Disease Brain Sections 20 μm frozen sections from amygdala were purchased from an external provider (Tissue Solutions Ltd.). Donors were diagnosed with AD, Braak stage V-VI (Braak et al., Neurobiol. Aging, 1995, 16, 271-284) and thus with confirmed Aβ pathology. Sections were kept at −80° C. until start of the experiment. Brain sections were encircled with pap pen liquid blocker to reduce the volume of solution for the different incubations. Sections were fixed for 15 min at 4° C. with 4% paraformaldehyde and washed three times for 5 minutes with PBS at room temperature. Test compounds were incubated on the sections at 100 μM in 50% ethanol in water for 30 min at room temperature, followed by three washes of 5 minutes with PBS. Sections were then saturated and permeabilized in blocking buffer (PBS, 10% NGS, 0.25% Triton) for 1 hour at room temperature and then incubated for 2 hours at room temperature with the primary antibodies against AR, 4G8, (Covance, SIG-39220), diluted 1/250 in PBS, 5% NGS, and 0.25% Triton. After three washes in PBS, the sections were incubated for 30 minutes at room temperature with a secondary anti-mouse antibody labeled with AlexaFluor555 (Invitrogen A21422) and further washed three times in PBS. To reduce auto-fluorescence of the tissue, the sections were incubated in a solution of 0.1% Sudan Black (Sigma 199664) in 70% ethanol for 15 min at room temperature, followed by four washes with PBS and mounted under cover slips using ProLong Gold Antifade reagent (Invitrogen P36930). Sections were analyzed on the Nikon Eclipse Ti microscope to detect staining and imaged using Nikon DS-Fi2 camera and NIS-Element AR4.13.1 software.

Row | SMILES | Staining of aSyn aggregates on PD sections [1] | Staining of Aβ plaques on AD sections [2]
1 | COc1ccc(/C=C/c2ccc3cc(-c4ccc(OCCF)cc4)sc3n2)cc1 [Example 13] | ++ | +++
2 | COc1ccc(/C=C/c2ccc3cc(-c4cccnc4)sc3n2)cc1 [Example 15] | +++ | +++
3 | COc1cccc(/C=C/c2ccc3cc(-c4cccnc4)sc3n2)c1 [Example 16] | ++ | ++
4 | c1cncc(-c2cc3ncc(-c4ccc(N5CCCC5)nc4)cc3s2)c1 [Example 18] | +++ | +++
5 | c1cncc(-c2ccc3nc(-c4ccc(N5CCCC5)nc4)sc3c2)c1 [Example 19] | +++ | +++
6 | Cn1cc(-c2ccc3sc(-c4ccc(N5CCCC5)nc4)nc3c2)cn1 [Example 20] | + | −
7 | c1cncc(-c2cnc3sc(-c4ccc(N5CCCC5)nc4)nc3c2)c1 [Example 23] | ++ | +
8 | c1cncc(-c2cc3nc(-c4ccc(N5CCCC5)nc4)sc3cn2)c1 [Example 24] | ++ | +
9 | c1n[nH]cc1-c1cc2nc(-c3ccc(N4CCCC4)nc3)sc2cn1 [Example 25] | ++ | +
10 | c1cncc(-c2ccc3nc(-c4ccc(N5CCCC5)nc4)sc3n2)c1 [Example 38] | +++ | +++
11 | c1cncc(-c2ccc3sc(-c4ccc(N5CCCC5)nc4)nc3c2)c1 [Example 39] | + | +
12 | Fc1ccncc1-c1ccc2sc(-c3ccc(N4CCCC4)nc3)nc2c1 [Example 40] | +++ | +
13 | Cn1cc(-c2ccc3sc(-c4ccc(N5CCCC5)nc4F)nc3c2)cn1 [Example 42] | + | +
14 | F[C@@H]1CCN(c2ccc(-c3ccc4sc(-c5cccnc5)cc4n3)cn2)C1 [Example 44] | + | −
15 | F[C@@H]1CCN(c2ccc(-c3cc4nc(-c5cccnc5)ccc4s3)cn2)C1 [Example 46] | + | +
16 | OCCOC1CCN(c2ccc3cc(-c4cccnc4)sc3n2)CC1 [Example 49] | ++ | ++
17 | Cn1cc(-c2ccc3sc(-c4ccc(N5CC[C@@H](F)C5)nc4)cc3n2)cn1 [Example 51] | ++ | +
18 | Cn1cc(-c2ccc3sc(-c4ccc(N5CC[C@@H](F)C5)nc4)nc3c2)cn1 [Example 52] | + | −
19 | Cn1cc(-c2ccc3sc(-c4ccc(N5CC[C@H](F)C5)nc4)nc3c2)cn1 [Example 53] | + | +

Second part, led by results:

Row | Staining of aSyn aggregates on PD sections [1] | SMILES | Staining of Aβ plaques on AD sections [2]
20 | ++ | CNc1ccc(-c2ccc3cc(-c4cccc(OC)c4O)sc3n2)cn1 [Example 3] | ++
21 | + | CNc1ccc(-c2ccc3cc(-c4ccc(C#N)cn4)sc3n2)cn1 [Example 5] | +
22 | ++ | CNc1ccc(-c2ccc3cc(-c4ccccc4OC)sc3n2)cn1 [Example 7] | +++
23 | ++ | CNc1ccc(-c2ccc3cc(-c4ccc(F)nc4)sc3n2)cn1 [Example 8] | +++
24 | ++ | CNc1ccc(-c2ccc3cc(-c4cccc(OC)c4)sc3n2)cc1 [Example 9] | ++
25 | + | CNc1ccc(-c2cc3ccc(-c4ccc(OCCF)cc4)nc3s2)cc1 [Example 10] | +++
26 | + | CNc1ccc(-c2ccc3cc(-c4ccc(OCCF)cc4)sc3n2)cc1 [Example 11] | ++
27 | + | FCCOc1ccc(-c2cc3ccc(-c4ccc(F)nc4)nc3s2)cc1 [Example 12] | ++
28 | ++ | CNc1ccc(-c2ccc3cc(-c4cccnc4)sc3n2)cc1 [Example 14] | +++
29 | ++ | c1ccc(-c2cc3ccc(-c4ccc(N5CCCC5)nc4)nc3s2)nc1 [Example 21] | ++
30 | + | Fc1cncc(-c2ccc3sc(-c4ccc(N5CCCC5)nc4)cc3n2)c1 [Example 28] | +
31 | + | CN(C)c1ncc(-c2ccc3cc(-c4cccnc4)sc3n2)cn1 [Example 29] | ++
32 | ++ | CNc1ccc(-c2ccc3cc(-c4ccc(OC)c(O)c4)sc3n2)cc1 [Example 30] | ++
33 | + | CNc1ccc(-c2ccc3cc(-c4ccnc(OC)c4)sc3n2)cc1 [Example 31] | ++
34 | +++ | c1cncc(-c2cc3ccc(-c4ccc(N5CCCC5)nc4)nc3s2)c1 [Example 32] | +++
35 | +++ | c1cncc(-c2cc3ccc(-c4ccc(N5CCOCC5)cc4)nc3s2)c1 [Example 33] | +
36 | ++ | Fc1ncccc1-c1cc2ccc(-c3ccc(N4CCCC4)nc3)nc2s1 [Example 34] | +++
37 | ++ | c1ncc(-c2cc3ccc(-c4ccc(N5CCCC5)nc4)nc3s2)cn1 [Example 35] | ++
38 | +++ | CN(C)c1ccc(-c2cc3ccc(-c4ccc(F)nc4)nc3s2)cn1 [Example 36] | +++
39 | ++ | CN(C)c1ccc(-c2ccc3cc(-c4ccc(N(C)C)nc4)sc3n2)cn1 [Example 37] | +
40 | + | F[C@@H]1CCN(c2ccc(-c3ccc4cc(-c5cccnc5)sc4n3)cn2)C1 [Example 45] | ++
41 | +++ | CNc1ccc(-c2ccc3cc(-c4cccnc4)sc3n2)cn1 [Example 47] | +++
42 | ++ | FC1CCN(c2ccc(-c3ccc4cc(-c5cccnc5)sc4n3)cn2)CC1 [Example 48] | +
43 | ++ | CN(C)c1ccc(-c2cc3ccc(-c4ccc(N5CCC(F)CC5)nc4)nc3s2)cn1 [Example 50] | +
